Reference: US8846704B2, “Thiopyrimidine-based compounds and uses thereof” (YM Biosciences Austraila Pty Ltd, priority 2007, dated 2014)

Target: T1, BaF3 TELJAK3 cells (Homo sapiens, UniProt P52333)
T1 construct: fused on or other part: TEL (ETV6) N-terminal part, coding nucleotides 1-487, serves as the oligomerising partner; It is fused through a Sal I site to the JAK3 kinase domain and expressed from pTRE2 in BaF3 cells bearing pTET-off; P41212 (Transcription factor ETV6)
T1 sequence (P52333 1-1124): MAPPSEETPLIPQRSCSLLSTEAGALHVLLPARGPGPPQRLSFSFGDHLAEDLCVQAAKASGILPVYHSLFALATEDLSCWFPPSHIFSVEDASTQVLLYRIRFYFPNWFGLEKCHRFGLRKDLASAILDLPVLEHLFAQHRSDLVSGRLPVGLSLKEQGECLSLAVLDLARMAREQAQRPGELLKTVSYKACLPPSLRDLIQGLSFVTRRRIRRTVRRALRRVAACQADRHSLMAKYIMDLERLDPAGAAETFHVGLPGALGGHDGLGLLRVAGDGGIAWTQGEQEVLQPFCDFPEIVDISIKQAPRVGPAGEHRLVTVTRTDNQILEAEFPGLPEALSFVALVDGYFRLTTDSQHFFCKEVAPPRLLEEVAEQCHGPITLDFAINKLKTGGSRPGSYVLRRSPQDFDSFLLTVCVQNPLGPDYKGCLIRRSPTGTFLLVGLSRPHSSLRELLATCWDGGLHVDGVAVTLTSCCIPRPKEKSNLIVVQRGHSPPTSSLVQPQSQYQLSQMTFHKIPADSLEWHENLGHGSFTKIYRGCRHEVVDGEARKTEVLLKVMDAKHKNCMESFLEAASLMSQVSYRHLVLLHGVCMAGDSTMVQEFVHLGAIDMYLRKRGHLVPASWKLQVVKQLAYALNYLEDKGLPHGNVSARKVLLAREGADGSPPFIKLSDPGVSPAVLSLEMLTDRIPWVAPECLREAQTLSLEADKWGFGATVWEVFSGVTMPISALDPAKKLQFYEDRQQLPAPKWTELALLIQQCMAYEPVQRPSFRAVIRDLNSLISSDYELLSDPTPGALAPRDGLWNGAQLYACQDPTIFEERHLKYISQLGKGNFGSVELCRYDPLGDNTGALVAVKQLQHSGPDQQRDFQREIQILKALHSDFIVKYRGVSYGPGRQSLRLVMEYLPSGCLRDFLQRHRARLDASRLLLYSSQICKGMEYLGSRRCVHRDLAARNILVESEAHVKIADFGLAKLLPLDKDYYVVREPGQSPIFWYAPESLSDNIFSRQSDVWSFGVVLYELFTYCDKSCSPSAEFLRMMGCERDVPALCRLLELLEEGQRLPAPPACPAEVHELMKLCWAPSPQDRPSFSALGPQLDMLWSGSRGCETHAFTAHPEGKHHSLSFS
Test: Cellular screening, BaF3 TEL:JAK3 cells, Alamar Blue
Type: cell-based
Conditions: 40 hr, read-out: BafT_J3 IC50_nM
Procedure, shortened: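 BaF3 cells carrying pTET-off and a TEL–JAK3 kinase-domain fusion, selected for growth-factor independence, were grown in DMEM with 10% Tet-approved FBS without WEHI 3B medium. Cells were exposed to compounds for 40 h at 37 °C, 5% CO2. Viability was read with Alamar Blue (4–6 h) at 544 nm.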

SMILES	GI50 [µM]
C=CC(=O)Nc1ccc(Sc2nc(Nc3ccc(NS(C)(=O)=O)cc3)ncc2C)cc1 [Compound 285, N-(4-(5-methyl-2-(4-(methylsulfonamido)phenylao)pyrimidin-4-ylthio)phenyl)acrylamide]	< 1
COc1ccc(Nc2ncc(C)c(Sc3ccc(N)cc3)n2)cc1OC [Compound 240, 4-(4-aophenylthio)-N-(3,4-dimethoxyphenyl)-5-methylpyrimidin-2-ae]	< 5
C=CC(=O)Nc1ccc(Sc2ccnc(Nc3cc(C)cc(C)c3)n2)cc1 [Compound 82, N-(4-(2-(3,5-dimethylphenylao)pyrimidin-4-ylthio)phenyl)acrylamide]	< 5
